Common to all, as to assay: relative viability (nuclei count vs DMSO), 5 days (fraction); higher = more cells survive
Compound in assay [1]: CS(=O)(=O)c1ccc(-c2cnc(N)c(C(=O)Nc3ccccc3)n2)cc1 [VE-821] + COc1cc2c(Oc3ccc(NC(=O)C4(C(=O)Nc5ccc(F)cc5)CC4)cc3F)ccnc2cc1OCCCN1CCOCC1 [Foretinib] (partner 0.25 µM)
A digest of the protocol:
(§1)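 A single step with final 0.05% Triton X-100, 1% formaldehyde and 1 ug/ml Hoechst fixed the cells and stained nuclei 5 days after treatment. Lung cancer cell lines in 1536-well plates had been treated by pin tool the day after seeding with one drug alone or a fixed anchor-drug dose plus five library-drug doses (not always all listed) in √10 steps, and nuclei were counted on 4× images. Relative viability is the ratio of nuclei in treated wells to nuclei in vehicle wells, taken as the median of duplicate plates.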

Compound in assay [2]: N#CC[C@H](C1CCCC1)n1cc(-c2ncnc3[nH]ccc23)cn1 [Ruxolitinib] + C[C@]1(O)C[C@@H](c2nc(-c3ccc4ccc(-c5ccccc5)nc4c3)c3c(N)nccn32)C1 [Linsitinib] (partner 1 µM)
In outline: as §1

Compound in assay [3]: N#CC[C@H](C1CCCC1)n1cc(-c2ncnc3[nH]ccc23)cn1 [Ruxolitinib] + Cc1cc(Nc2cc(N3CCN(C)CC3)nc(Sc3ccc(NC(=O)C4CC4)cc3)n2)n[nH]1 [Tozasertib] (partner 0.1 µM)
A digest of the protocol: as §1

Compound in assay [4]: CS(=O)(=O)c1ccc(-c2cnc(N)c(C(=O)Nc3ccccc3)n2)cc1 [VE-821] + C[C@]1(O)C[C@@H](c2nc(-c3ccc4ccc(-c5ccccc5)nc4c3)c3c(N)nccn32)C1 [Linsitinib] (partner 1 µM)
A digest of the protocol:
as §1

On to RERF-LC-KJ, for which the relative viability in assay [1] (first compound 0.08 µM) turned out to be 0.861; in assay [1] (first compound 0.253 µM), 0.868; in assay [1] (first compound 0.8 µM) it was 0.793; in assay [1] (first compound 2.53 µM) it was 0.767; in assay [1] (first compound 8 µM), 0.698; in assay [2] (first compound 0.08 µM) it was 0.883. For the same cell line, the relative viability in assay [2] (first compound 0.253 µM) amounted to 0.812; in assay [2] (first compound 0.8 µM), 0.877; in assay [2] (first compound 2.53 µM), 0.904; in assay [2] (first compound 8 µM), 0.634; in assay [3] (first compound 0.08 µM) it was 0.401; in assay [3] (first compound 0.253 µM) it was 0.492. The relative viability in assay [3] (first compound 0.8 µM) was found to be 0.555; in assay [3] (first compound 2.53 µM), 0.495; in assay [3] (first compound 8 µM), 0.384; in assay [4] (first compound 0.08 µM), 0.902; in assay [4] (first compound 0.253 µM) it was 0.871; in assay [4] (first compound 0.8 µM), 0.819. The relative viability stood at 0.875 in assay [4] (first compound 2.53 µM) and 0.753 in assay [4] (first compound 8 µM).

For the cell line SK-LU-1, the relative viability was 0.871 in assay [1] (first compound 0.08 µM); 0.775 in assay [1] (first compound 0.253 µM); 0.738 in assay [1] (first compound 0.8 µM); 0.59 in assay [1] (first compound 2.53 µM); 0.254 in assay [1] (first compound 8 µM); 1.16 in assay [2] (first compound 0.08 µM). Also, the relative viability amounted to 1.19 in assay [2] (first compound 0.253 µM); 1.27 in assay [2] (first compound 0.8 µM); 0.974 in assay [2] (first compound 2.53 µM); 0.945 in assay [2] (first compound 8 µM); 0.363 in assay [3] (first compound 0.08 µM); 0.328 in assay [3] (first compound 0.253 µM). The relative viability in assay [3] (first compound 0.8 µM) turned out to be 0.412; in assay [3] (first compound 2.53 µM), 0.372; in assay [3] (first compound 8 µM) it was 0.338; in assay [4] (first compound 0.08 µM), 1.15; in assay [4] (first compound 0.253 µM) it was 0.86; in assay [4] (first compound 0.8 µM) it was 1.07. Moreover, the relative viability turned out to be 0.843 in assay [4] (first compound 2.53 µM) and 0.383 in assay [4] (first compound 8 µM).

Regarding SK-MES-1, the relative viability in assay [1] (first compound 0.08 µM) was 0.99; in assay [1] (first compound 0.253 µM) it was 0.989; in assay [1] (first compound 0.8 µM) it was 0.655; in assay [1] (first compound 2.53 µM) it was 1.02; in assay [1] (first compound 8 µM), 0.89; in assay [2] (first compound 0.08 µM), 1.15. Also, the relative viability was found to be 1.02 in assay [2] (first compound 0.253 µM); 1.04 in assay [2] (first compound 0.8 µM); 0.866 in assay [2] (first compound 2.53 µM); 0.622 in assay [2] (first compound 8 µM); 1.01 in assay [3] (first compound 0.08 µM); 0.873 in assay [3] (first compound 0.253 µM). The relative viability in assay [3] (first compound 0.8 µM) is 0.906; in assay [3] (first compound 2.53 µM), 0.768; in assay [3] (first compound 8 µM) it was 0.735; in assay [4] (first compound 0.08 µM) it was 1.04; in assay [4] (first compound 0.253 µM) it was 1.05; in assay [4] (first compound 0.8 µM), 1.02. The relative viability in assay [4] (first compound 2.53 µM) came out at 1.02; in assay [4] (first compound 8 µM), 0.983.

Take SW 1573: the relative viability amounted to 0.96 in assay [1] (first compound 0.08 µM); 0.853 in assay [1] (first compound 0.253 µM); 0.861 in assay [1] (first compound 0.8 µM); 0.815 in assay [1] (first compound 2.53 µM); 0.87 in assay [1] (first compound 8 µM); 0.948 in assay [2] (first compound 0.08 µM). Moreover, the relative viability came out at 0.669 in assay [2] (first compound 0.253 µM); 0.848 in assay [2] (first compound 0.8 µM); 0.707 in assay [2] (first compound 2.53 µM); 0.534 in assay [2] (first compound 8 µM); 0.209 in assay [3] (first compound 0.08 µM); 0.182 in assay [3] (first compound 0.253 µM). The relative viability in assay [3] (first compound 0.8 µM) is 0.167; in assay [3] (first compound 2.53 µM), 0.183; in assay [3] (first compound 8 µM), 0.16; in assay [4] (first compound 0.08 µM) it was 0.912; in assay [4] (first compound 0.253 µM), 0.859; in assay [4] (first compound 0.8 µM), 0.789. The relative viability in assay [4] (first compound 2.53 µM) and in assay [4] (first compound 8 µM) was 0.874 in each case.

The values above are taken from the supplement of paper PMC10307832.
